Patent publication US20040044037A1, “Amidino-urea serotonin receptor ligands and compositions, their pharmaceutical uses, and methods for their snythesis” (priority 2003, published 2004)
Like-named read-outs stand apart in the source and are kept apart here.

Key:
[1] = target: T1, human D2S dopamine (hD2S-DA) receptors (Homo sapiens, UniProt P14416); assay: Competition radioligand binding, hD2S dopamine
T1 construct: purchased Receptor Biology, Inc. (Beltsville, Md.); host or cells: A9 L cells

human 5-HT1a receptors = target: T2, human 5-HT1a receptors (Homo sapiens, UniProt P08908); assay: Competition radioligand binding, h5-HT1a
T2 construct: expressed in transfected cells; host or cells: CHO K1 cells
T2 sequence (P08908 1-422): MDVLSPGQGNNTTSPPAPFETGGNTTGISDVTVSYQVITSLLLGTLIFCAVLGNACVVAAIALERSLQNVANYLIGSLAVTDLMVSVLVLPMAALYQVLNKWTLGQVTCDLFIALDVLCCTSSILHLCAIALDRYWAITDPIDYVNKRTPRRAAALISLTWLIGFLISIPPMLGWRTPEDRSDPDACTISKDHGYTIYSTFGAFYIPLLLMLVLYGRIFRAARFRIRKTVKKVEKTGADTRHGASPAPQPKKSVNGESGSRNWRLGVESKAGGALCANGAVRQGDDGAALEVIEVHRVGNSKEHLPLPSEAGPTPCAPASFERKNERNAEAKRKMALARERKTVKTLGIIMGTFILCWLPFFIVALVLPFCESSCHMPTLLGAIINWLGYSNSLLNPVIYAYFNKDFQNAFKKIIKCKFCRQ
Description: (§1) Cells and Membrane Preparation: HEK 293 cells stably expressing human 5-HT7B (h5-HT7b) receptors were grown in Dulbecco's Modified Eagle's Medium (DMEM; Gibco) without sodium pyruvate and containing 4.5 g/L glucose, L-glutamine/penicillin-streptomycin (Gemini), 10% fetal bovine serum and 250 mg/l of the antibiotic, G418 (Geneticin) as previously described (Jasper, J. R., Kosaka, A., To, Z. P., Chang, D. J. and Eglen, R. M. (1997) Cloning, expression and pharmacology of a truncated splice variant of the human 5-ht7 receptor (h5-ht7b). Br. J. Pharmacol. 122(1):126-132.). Cell pellets were homogenized in approximately 50 mL of homogenization buffer (buffer A) containing: 50 mM Tris (pH 7.4), 2 mM EGTA, 0.32 M sucrose, 10 μM PMSF, 1 μg/mL leupeptin, 5 μg/mL Pepstatin A, and 5 μg/mL aprotinin using an UltraTurax homogenizer (Tekmar Company, Cincinnati, Ohio) at 80% maximum setting three times for 10 sec. Cell pellets were centrifuged at 4° C. at 1,500×g for 10 min in a Beckman GS-6R centrifuge. Pellets were resuspended in buffer A, homogenized and centrifuged as described above. Pooled supernatants were transferred to centrifuge bottles and centrifuged at 4° C. at 20,000×g for 30 min in a Beckman J2-HS centrifuge. Cell pellets were resuspended in buffer A and were centrifuged at 4° C. at 20,000×g for 30 min. Cell pellets were resuspended in buffer A and stored at −70° C. in aliquots of 2.5 mg/mL total membrane protein. Total membrane protein was assessed utilizing a BCA kit (Pierce; Rockford, Ill.). Membranes containing human 5-HT1a or 5HT2a receptors expressed in CHO K1 cells were prepared as described above.
(§2) Radioligand Binding Assays: For 5-HT7 saturation binding experiments, HEK-293 cell membranes expressing h5-HT7 receptors (5-10 μg membrane protein/well) were incubated in duplicate with [^3H]5-CT (approximately 0.2 nM) in binding assay buffer containing: 50 mM HEPES (pH 7.4), 0.5 mM EDTA, 10 mM MgCl2, 10 μM pargyline to inhibit monoamine oxidase activity, and 0.1% sodium ascorbate, in a final volume of 200 μL in 96-well polypropylene plates for 2 hours at 37° C. Nonspecific binding was determined by incubating membranes with 1 μM 5-HT. All radioligand binding assays were stopped by rapid filtration onto 96-well GF/C filter plates (Packard) soaked in 0.1% polyethylenimine. Filters were washed three times with ice-cold phosphate-buffered saline (PBS) wash buffer containing 50 mM NaPO4 (pH 7.4), 0.9% NaCl, 2 mM MgCl2 and 0.02% NaN3. The filters were then counted using liquid scintillation in a Packard Topcount scintillation counter.
(§3) Data Analysis: Radioligand binding experiments were analyzed with Prism™ (Graphpad, San Diego, Calif.), a computer graphics and statistics program. IC50 values and Hill slopes for compounds were generated by nonlinear regression using Prism™. Values for Ki calculated from IC50 values by the Cheng and Prussoff equation (Cheng, Y. and Prusoff, W. H., (1973), “Relationship between the inhibition constant (Ki) and the concentration of inhibitor which causes 50 per cent inhibition (I50) of an enzymatic reaction.” Biochemical Pharmacol. 22:3099-3108).

human 5HT2a receptors = target: T3, human 5HT2a receptors (Homo sapiens, UniProt P28223); assay: Competition radioligand binding, 5-HT2A
T3 construct: expressed in transfected cells; host or cells: CHO K1 cells
T3 sequence (P28223 whole entry): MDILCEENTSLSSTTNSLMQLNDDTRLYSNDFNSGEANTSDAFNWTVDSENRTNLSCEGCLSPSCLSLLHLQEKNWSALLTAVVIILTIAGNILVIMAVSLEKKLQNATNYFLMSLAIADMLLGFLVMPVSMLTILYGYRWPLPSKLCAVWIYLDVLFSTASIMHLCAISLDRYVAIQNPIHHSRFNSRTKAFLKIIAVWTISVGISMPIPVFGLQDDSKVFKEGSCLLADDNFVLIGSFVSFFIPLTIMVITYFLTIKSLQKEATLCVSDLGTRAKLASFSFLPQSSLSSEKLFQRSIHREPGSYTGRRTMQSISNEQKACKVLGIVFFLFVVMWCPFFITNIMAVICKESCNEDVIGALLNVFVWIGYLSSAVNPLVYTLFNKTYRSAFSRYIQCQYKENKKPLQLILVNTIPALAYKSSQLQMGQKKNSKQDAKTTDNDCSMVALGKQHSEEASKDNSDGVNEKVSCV
Description: as §1, §2, §3

[2] = target: T4, human 5-HT7B (h5-HT7b) receptors (Homo sapiens, UniProt P34969); assay: Competition radioligand binding, h5-HT7b
T4 construct: expressed in transfected cells
T4 sequence (P34969 1-432 limits assumed): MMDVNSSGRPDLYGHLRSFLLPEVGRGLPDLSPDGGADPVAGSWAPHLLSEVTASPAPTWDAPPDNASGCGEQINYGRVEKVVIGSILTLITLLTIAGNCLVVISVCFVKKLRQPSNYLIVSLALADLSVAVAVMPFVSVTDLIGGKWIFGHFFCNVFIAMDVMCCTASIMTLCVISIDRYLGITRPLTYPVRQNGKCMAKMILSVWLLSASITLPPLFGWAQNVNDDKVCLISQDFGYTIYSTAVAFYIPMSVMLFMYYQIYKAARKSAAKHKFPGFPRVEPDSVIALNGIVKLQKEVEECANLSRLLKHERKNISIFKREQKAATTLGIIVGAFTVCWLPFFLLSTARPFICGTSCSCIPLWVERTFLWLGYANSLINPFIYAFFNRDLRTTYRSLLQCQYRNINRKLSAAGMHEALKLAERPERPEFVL
Excerpt: The compounds of the invention interact with 5-HT receptors and show selectivity for 5-HT receptors. The 5-HT receptor binding properties of the compounds are identified by competitive radioligand binding assays wherein membranes prepared from transfected cells expressing the 5-HT receptor subtype of interest. “Binding constants” refers herein to Ki values measured by inhibition of the binding of radiolabelled ligands that are selective for the 5-HT receptor type being studied. For 5-HT7 receptors, Ki values are determined by measuring the inhibition of 5-carboxamidotryptamine (5-CT) binding, wherein 5-HT7 receptors were incubated with the radiolabelled high affinity ligand, 5-carboxamidotryptamine ([^3H]5-CT), in the presence and absence of the compounds of the invention, at varying concentrations. The compounds of the invention have high binding affinity for serotonin receptors as measured by dissociation constant Ki. […] “Selectivity” for receptor type, in the context of this invention, refers to the ratio of binding constants for the two receptor types being compared. […] The compounds of the present invention preferably show selectivity for 5-HT7 receptors over other serotonin receptor subtypes of greater than about 100. The compounds of the present invention also preferably show selectivity for 5-HT7 receptors over other receptor types, such as dopamine D2, of greater than about 100.
as §1
as §2, with “counter. […]” for “counter.”

[3] = target: T5, human 5-HT6 (h5-HT6) receptors (Homo sapiens, UniProt P50406); assay: Competition radioligand binding, h5-HT6
T5 construct: purchased Receptor Biology, Inc. (Beltsville, Md.); host or cells: HEK-293 cells
T5 sequence (P50406 whole entry): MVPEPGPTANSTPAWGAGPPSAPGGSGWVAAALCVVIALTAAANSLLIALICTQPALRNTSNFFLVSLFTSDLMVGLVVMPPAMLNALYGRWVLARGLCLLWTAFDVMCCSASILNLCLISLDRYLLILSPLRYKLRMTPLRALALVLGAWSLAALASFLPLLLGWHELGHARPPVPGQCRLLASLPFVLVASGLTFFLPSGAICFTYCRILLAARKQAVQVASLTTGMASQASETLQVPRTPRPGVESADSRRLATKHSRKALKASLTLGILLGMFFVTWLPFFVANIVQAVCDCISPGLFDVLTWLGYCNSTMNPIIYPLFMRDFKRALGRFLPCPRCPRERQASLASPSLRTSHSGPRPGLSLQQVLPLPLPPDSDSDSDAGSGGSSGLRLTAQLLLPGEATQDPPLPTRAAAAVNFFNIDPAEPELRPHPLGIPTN

[4] = [3H]Spiperone, membranes of A9 L cells, read-out: Ki D2
[5] = [3H]5-CT, membranes of CHO K1 cells, read-out: Ki 5-HT1A
[6] = [3H]Ketanserin, membranes of CHO K1 cells, read-out: Ki 5-HT2A
[7] = [3H]5-CT, membranes of HEK 293 cells, read-out: Ki 5-HT7
[8] = [3H]LSD, membranes of HEK-293 cells, read-out: Ki 5-HT6

T1 sequence (P14416 1-414 isoform P14416-2): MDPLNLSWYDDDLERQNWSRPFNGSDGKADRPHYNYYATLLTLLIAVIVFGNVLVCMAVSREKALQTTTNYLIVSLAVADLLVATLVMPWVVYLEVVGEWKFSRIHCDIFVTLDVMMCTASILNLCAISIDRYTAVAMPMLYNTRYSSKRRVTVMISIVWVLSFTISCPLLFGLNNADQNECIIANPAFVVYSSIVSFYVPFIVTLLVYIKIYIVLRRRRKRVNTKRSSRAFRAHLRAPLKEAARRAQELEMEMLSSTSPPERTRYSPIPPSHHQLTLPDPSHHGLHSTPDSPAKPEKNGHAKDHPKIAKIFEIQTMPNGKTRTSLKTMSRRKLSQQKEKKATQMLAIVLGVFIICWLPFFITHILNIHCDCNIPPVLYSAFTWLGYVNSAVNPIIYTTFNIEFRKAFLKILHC

Work on `COc1ccccc1CN1CCN(C(=O)NC(=N)NCc2cccc3ccccc23)CC1` [Example 5, N-{[4-(2-Methoxybenzyl)-1-piperazinyl]carbonyl}-N′-(1-naphthylmethyl)guanidine] yielded a Ki [1, 4] of 2010 nM, a Ki (human 5-HT1a receptors; [5]) of 2390 nM and a Ki (human 5HT2a receptors; [6]) of 46 nM. The Ki [2, 7] was 26 nM and the Ki [3, 8] was 1960 nM.
`N=C(NCc1cccc2ccccc12)NC(=O)NC1CCN(Cc2ccccc2)CC1` [Example 6, 1-Benzyl-4-{[({imino[(1-naphthylmethyl)amino]methyl}amino)carbonyl]amino}piperidine] was tested, and the Ki [1, 4] was 1050 nM, the Ki (human 5-HT1a receptors; [5]) was 770 nM and the Ki (human 5HT2a receptors; [6]) was 13 nM. For the same compound, the Ki [2, 7] was 68 nM and the Ki [3, 8] was 8630 nM.
`N=C(NCc1cccc2ccccc12)NC(=O)N1CCN(Cc2ccccc2)CC1` [Example 7, N-[(4-Benzyl-1-piperazinyl)carbonyl]-N′-(1-naphthylmethyl)guanidine] gave a Ki [1, 4] of 770 nM, a Ki (human 5-HT1a receptors; [5]) of 1690 nM and a Ki (human 5HT2a receptors; [6]) of 43 nM. The Ki [2, 7] was 1.4 nM and the Ki [3, 8] was > 10000 nM.
With `N=C(NCc1cccc2ccccc12)NC(=O)N1CCC(C(N)=O)CC1` [Example 8, 1-[({imino[(1-naphthylmethyl)amino]methyl}amino)carbonyl]-4-piperidinecarboxamide] the Ki [1, 4] was > 2500 nM, the Ki (human 5-HT1a receptors; [5]) was > 4000 nM and the Ki (human 5HT2a receptors; [6]) was 40 nM. For the same compound, the Ki [2, 7] was 12 nM and the Ki [3, 8] was > 10000 nM.
Work on `COc1ccccc1N1CCN(C(=O)NC(=N)NCc2cccc3ccccc23)CC1` [Example 21, N-{[4-(2-Methoxyphenyl)-1-piperazinyl]carbonyl}-N′-(1-naphthylmethyl)guanidine] yielded a Ki [1, 4] of 900 nM, a Ki (human 5-HT1a receptors; [5]) of 520 nM and a Ki (human 5HT2a receptors; [6]) of 150 nM. The Ki [2, 7] was 6 nM and the Ki [3, 8] was > 10000 nM.
In the case of `N=C(NCc1cccc2ccccc12)NC(=O)N[C@H]1C[C@@H]2CC[C@H]1C2` [Example 23, 1-({[({[(1S,2S,4R)Bicyclo[2.2.1]hept-2-ylamino]carbonyl}amino) (imino)methyl]amino}methyl)naphthalene], the Ki [1, 4] is reported as 280 nM, the Ki (human 5-HT1a receptors; [5]) is reported as 220 nM and the Ki (human 5HT2a receptors; [6]) is reported as 4 nM. It also gave a Ki [2, 7] of 9.7 nM and a Ki [3, 8] of 1930 nM.
`N=C(NCc1cccc2ccccc12)NC(=O)N1CCN(C/C=C/c2ccccc2)CC1` [Example 24, N-(1-Naphthylmethyl)-N′-({4-[(E)-3-phenyl-2-propenyl]-1-piperazinyl}carbonyl)guanidine] was tested, and the Ki [1, 4] was 820 nM, the Ki (human 5-HT1a receptors; [5]) was 2620 nM and the Ki (human 5HT2a receptors; [6]) was 78 nM. For the same compound, the Ki [2, 7] was 3.2 nM and the Ki [3, 8] was 1910 nM.
For `N=C(NCc1cccc2ccccc12)NC(=O)N1CCC(Nc2ccccc2)CC1` [Example 25, N-[(4-Anilino-1-piperidinyl)carbonyl]-N-(1-naphthylmethyl)guanidine], the Ki [1] was 1470 nM, the Ki (human 5-HT1a receptors) was 2590 nM and the Ki (human 5HT2a receptors) was 120 nM. The Ki [2] was 7.4 nM and the Ki [3] was > 10000 nM.
For `N=C(NCc1cccc2ccccc12)NC(=O)N1CCC(Cc2ccccc2)CC1` [Example 29, N-[(4-Benzyl-1-piperidinyl)carbonyl]-N′-(1-naphthylmethyl)guanidine], the Ki [1, 4] was > 2500 nM, the Ki (human 5-HT1a receptors; [5]) was 2690 nM and the Ki (human 5HT2a receptors; [6]) was 170 nM. For the same compound, the Ki [2, 7] was 16 nM and the Ki [3, 8] was > 10000 nM.
`N=C(NCc1cccc2ccccc12)NC(=O)N[C@@H](Cc1ccc(O)cc1)C(N)=O` [Example 35] was tested, and the Ki [1, 4] was 630 nM, the Ki (human 5-HT1a receptors; [5]) was > 4000 nM and the Ki (human 5HT2a receptors; [6]) was 0.92 nM. For the same compound, the Ki [2, 7] was 5.1 nM and the Ki [3, 8] was 460 nM.
Work on `N=C(NCc1cccc2ccccc12)NC(=O)N1CCC2(CC1)C(=O)NCN2c1ccccc1` [Example 36, N-(1-Naphthylmethyl)-N′-[(4-oxo-1-phenyl-1,3,8-triazaspiro[4.5]dec-8yl)carbonyl]guanidine] yielded a Ki [1, 4] of 340 nM, a Ki (human 5-HT1a receptors; [5]) of 580 nM and a Ki (human 5HT2a receptors; [6]) of 33 nM. For the same compound, the Ki [2, 7] was 11 nM and the Ki [3, 8] was 740 nM.
`N=C(NCc1cccc2ccccc12)NC(=O)NC1CCCc2ccccc21` (stereo not drawn) [Example 40, 1-{[({Imino[(1-naphthylmethyl)amino]methyl}amino)carbonyl]amino}-1,2,3,4-tetrahydronaphthalene] gave a Ki [1, 4] of 1700 nM, a Ki (human 5-HT1a receptors; [5]) of 540 nM and a Ki (human 5HT2a receptors; [6]) of 4.1 nM. It also gave a Ki [2, 7] of 24 nM and a Ki [3, 8] of 590 nM.
`N=C(NCc1cccc2ccccc12)NC(=O)NC[C@@H]1CCCC[C@@H]1O` [Example 41, 1-({[([({[(1S,2S)2-Hydroxycyclohexyl]methyl}amino)carbonyl]amino}(imino)methyl]amino}methyl)naphthalene] showed a Ki [1, 4] of 1070 nM, a Ki (human 5-HT1a receptors; [5]) of 54 nM and a Ki (human 5HT2a receptors; [6]) of 2 nM. For the same compound, the Ki [2, 7] was 8.9 nM and the Ki [3, 8] was 340 nM.
In the case of `N=C(NCc1cccc2ccccc12)NC(=O)NC1CCc2ccccc21` (stereo not drawn) [Example 43, 1-({[{[(2,3-Dihydro-1H-inden-1-ylamino)carbonyl]amino}(imino)methyl]amino}methyl)naphthalene], the Ki [1, 4] is reported as 2190 nM, the Ki (human 5-HT1a receptors; [5]) is reported as 630 nM and the Ki (human 5HT2a receptors; [6]) is reported as 4.8 nM. It also gave a Ki [2, 7] of 22 nM and a Ki [3, 8] of 900 nM.
Compound `COc1ccccc1CN1CCC(CNC(=O)NC(=N)NCc2cccc3ccccc23)CC1` [Example 45, 4-({[({Imino[(1-naphthylmethyl)amino]methyl}amino)carbonyl]amino}methyl)-1-(2-methoxybenzyl)piperidine] has a Ki [1, 4] of 500 nM, a Ki (human 5-HT1a receptors; [5]) of 600 nM and a Ki (human 5HT2a receptors; [6]) of 3.9 nM. It also gave a Ki [2, 7] of 21 nM and a Ki [3, 8] of 1550 nM.
